Values of other authors, collected in patent US20230111568A1, “SOLID DISPERSIONS OF RIFAXIMIN FOR THE TREATMENT OF OVERT HEPATIC ENCEPHALOPATHY” (Bausch Health Ireland Limited, priority 2020, published 2023).

System: complications of cirrhosis

What does the source list for CO[C@H]1/C=C/O[C@@]2(C)Oc3c(C)c(O)c4c(O)c(c5c(nc6cc(C)ccn65)c4c3C2=O)NC(=O)/C(C)=C\C=C\[C@H](C)[C@H](O)[C@@H](C)[C@@H](O)[C@@H](C)[C@H](OC(C)=O)[C@@H]1C [rifaximin]?
HE recurrences, hospitalizations, adverse events, survival (literature (Conf. Proc. IEEE Eng. Med. Biol. Soc. 2013)): protect from HE recurrences with decreased HE-related and all-cause hospitalizations without an increased rate of adverse events (AEs) or decreased survival; overall rates of infection, antibiotic use and other complications of cirrhosis (literature (Conf. Proc. IEEE Eng. Med. Biol. Soc.)): reduces or maintains the overall rates of infection, antibiotic use, and other complications of cirrhosis such as ascites; survival and risk of variceal bleeding, HE, SBP or HRS (literature (Journal of Gastroenterology and Hepatology 28(3))): independently associated with higher survival and lower risk of developing variceal bleeding, HE, SBP, or HRS
